# Reference: article PMC7951137 (ACS chemical neuroscience, 2021)
# Experiments:
# D189A hMC4R [1] = target: T1, D189A hMC4R (Homo sapiens, UniProt P32245, D189A); test: cAMP AlphaScreen antagonist assay; assay type: cell-based
# D189Q hMC4R [2] = target: T2, D189Q hMC4R (Homo sapiens, UniProt P32245, D189Q); test: cAMP AlphaScreen antagonist assay; assay type: cell-based
# D189N hMC4R [3] = target: T3, D189N hMC4R (Homo sapiens, UniProt P32245, D189N); test: cAMP AlphaScreen antagonist assay; assay type: cell-based
# T3 sequence (P32245 whole entry D189N): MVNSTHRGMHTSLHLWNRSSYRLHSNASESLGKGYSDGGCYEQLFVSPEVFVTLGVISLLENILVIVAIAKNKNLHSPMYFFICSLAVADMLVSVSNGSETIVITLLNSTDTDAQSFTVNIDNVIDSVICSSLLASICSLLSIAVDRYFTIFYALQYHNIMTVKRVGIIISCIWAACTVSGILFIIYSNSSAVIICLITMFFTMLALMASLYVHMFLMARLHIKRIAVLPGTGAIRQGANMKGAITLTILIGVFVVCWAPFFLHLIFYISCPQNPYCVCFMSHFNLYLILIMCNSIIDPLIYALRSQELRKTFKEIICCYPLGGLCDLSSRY
# D189K hMC4R [4] = target: T4, D189K hMC4R (Homo sapiens, UniProt P32245, D189K); test: cAMP AlphaScreen antagonist assay; assay type: cell-based
# T4 sequence (P32245 whole entry D189K): as the sequence (P32245 whole entry D189N) above, with N189K counted along it
# D189S hMC4R [5] = target: T5, D189S hMC4R (Homo sapiens, UniProt P32245, D189S); test: cAMP AlphaScreen agonist / inverse agonist assay; assay type: cell-based; settings: D189S hMC4R
# T5 sequence (P32245 whole entry D189S): as the sequence (P32245 whole entry D189N) above, with N189S counted along it
# wildtype hMC4R = wildtype hMC4R (Homo sapiens, UniProt P32245); test: cAMP AlphaScreen agonist / inverse agonist assay; assay type: cell-based; settings: WT hMC4R, basal = signal at 10^−12 M
# wildtype hMC4R, sequence (P32245 whole entry): as the sequence (P32245 whole entry D189N) above, with N189D counted along it
# D189Q hMC4R [6] = target: T2, D189Q hMC4R; test: cAMP AlphaScreen agonist / inverse agonist assay; assay type: cell-based; settings: for Inverse agonist percent decrease from basal activity: D189Q hMC4R
# D189E hMC4R = D189E hMC4R (Homo sapiens, UniProt P32245, D189E); test: cAMP AlphaScreen agonist / inverse agonist assay; assay type: cell-based; settings: for Inverse agonist percent decrease from basal activity: D189E hMC4R
# D189E hMC4R, sequence (P32245 whole entry D189E): as the sequence (P32245 whole entry D189N) above, with N189E counted along it
# D189N hMC4R [7] = target: T3, D189N hMC4R; test: cAMP AlphaScreen agonist / inverse agonist assay; assay type: cell-based; settings: D189N hMC4R
# D189K hMC4R [8] = target: T4, D189K hMC4R
# D189A hMC4R [9] = target: T1, D189A hMC4R; test: cAMP AlphaScreen agonist / inverse agonist assay; assay type: cell-based
# D189K hMC4R [10] = target: T4, D189K hMC4R; test: cAMP AlphaScreen agonist / inverse agonist assay; assay type: cell-based
# D189S hMC4R [11] = target: T5, D189S hMC4R; test: cAMP AlphaScreen antagonist assay; assay type: cell-based; settings: Schild analysis, agonist NDP-MSH
# T2 sequence (P32245 whole entry D189Q): as the sequence (P32245 whole entry D189N) above, with N189Q counted along it
# T1 sequence (P32245 whole entry D189A): as the sequence (P32245 whole entry D189N) above, with N189A counted along it
molecule,measurement,setting,value
"C[C@@H]1NC(=O)[C@H](CC(=O)O)NC(=O)[C@H](Cc2ccccc2)NC(=O)[C@H](Cc2ccccc2)NC(=O)[C@H](CCCNC(=N)N)NC(=O)[C@@H]2CCCN2C(=O)[C@H]2CCCN2C(=O)[C@H](Cc2ccccc2)NC1=O [MDE3–119-4c, c[Pro-Arg-Phe-Phe-Asp-Ala-Phe-DPro]]",Kb,D189A hMC4R [1],> 3.16 µM
same,Kb,D189Q hMC4R [2],1.58 µM
same,Kb,D189N hMC4R [3],0.398 µM
same,Kb,D189K hMC4R [4],> 3.16 µM
same,Inverse agonist percent decrease from basal activity,D189S hMC4R [5],−15%
same,Inverse agonist percent decrease from basal signal,wildtype hMC4R,−35%
same,EC50,D189Q hMC4R [6],7 µM
same,Inverse agonist percent decrease from basal activity,D189Q hMC4R [6],−45%
same,EC50,D189E hMC4R,3 µM
same,Inverse agonist percent decrease from basal activity,D189E hMC4R,−40%
"agouti-related protein (AGRP86–132) [hAGRP(86–132), reference compound]",Inverse agonist percent decrease from basal activity,D189N hMC4R [7],30±10 (−10%)
same,Decreased I125-AGRP binding affinity versus wildtype,D189K hMC4R [8],10 fold
same,Inverse agonist activity,D189A hMC4R [9],no apparent inverse agonist activity
same,Inverse agonist activity,D189K hMC4R [10],no apparent inverse agonist activity
same,Inverse agonist percent decrease from basal activity,D189S hMC4R [5],20±10 (−20%)
same,Inverse agonist percent decrease from basal signal,wildtype hMC4R,2.4±0.5 (−35%)
same,Inverse agonist percent decrease from basal signal,wildtype hMC4R; listed as AGRP,35%
same,Inverse agonist percent decrease from basal activity,D189Q hMC4R [6],17±5 (−35%)
same,Inverse agonist percent decrease from basal activity,D189E hMC4R,4.4±0.1 (−35%)
same,Antagonist pA2,D189S hMC4R [11],8.2±0.2
